pIC50: −log10 of the molar value. Structures can show the parent of a compound that is named as a salt.
What follows are molecules tested against T1, mGlyT-1b (Mus musculus, UniProt P28571) (assay: Glycine uptake inhibition assay (mGlyT-1b)). Conditions: [3H]-glycine uptake, Flp-in-CHO cells stably transfected with mGlyT1b cDNA, 20 min preincubation at 22° C.
T1 construct: host or cells: Flp-in-CHO
T1 sequence (P28571 1-651 isoform P28571-2): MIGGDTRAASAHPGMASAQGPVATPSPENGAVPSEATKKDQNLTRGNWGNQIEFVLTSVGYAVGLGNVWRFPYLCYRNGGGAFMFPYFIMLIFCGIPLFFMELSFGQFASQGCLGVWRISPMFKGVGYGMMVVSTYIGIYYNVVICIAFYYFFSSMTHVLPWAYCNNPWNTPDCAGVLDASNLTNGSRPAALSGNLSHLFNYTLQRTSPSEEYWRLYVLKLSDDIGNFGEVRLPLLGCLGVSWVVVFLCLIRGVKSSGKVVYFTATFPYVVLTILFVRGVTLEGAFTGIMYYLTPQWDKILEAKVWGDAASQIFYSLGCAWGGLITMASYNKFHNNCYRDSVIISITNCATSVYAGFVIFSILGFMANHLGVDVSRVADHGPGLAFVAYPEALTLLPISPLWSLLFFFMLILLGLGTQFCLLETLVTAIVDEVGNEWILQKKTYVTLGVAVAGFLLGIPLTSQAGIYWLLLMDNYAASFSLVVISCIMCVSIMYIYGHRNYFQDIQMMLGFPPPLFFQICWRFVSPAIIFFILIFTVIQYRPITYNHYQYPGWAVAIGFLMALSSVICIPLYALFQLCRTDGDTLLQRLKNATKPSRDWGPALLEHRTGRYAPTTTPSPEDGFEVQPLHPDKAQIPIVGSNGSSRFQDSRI
Format: cell-based
Procedure: Nutrient mixture F-12 (Gibco Life-technologies), fetal bovine serum (FBS) 5%, (Gibco life technologies), Penicillin/Streptomycin 1% (Gibco life technologies), Hygromycin 0.6 mg/ml (Gibco life technologies), Glutamine 1 mM Gibco life technologies)
150 mM NaCl, 10 mM Hepes-Tris, pH 7.4, 1 mM CaCl2, 2.5 mM KCl, 2.5 mM MgSO4, 10 mM (+) D-glucose.
Flp-in™-CHO (Invitrogen Cat n° R758-07) cells stably transfected with mGlyT1b cDNA.
Glycine Uptake Inhibition Assay (mGlyT-1b)
On day 1 mammalian cells, (Flp-in™-CHO), transfected with mGlyT-1b cDNA, were plated at the density of 40,000 cells/well in complete F-12 medium, without hygromycin in 96-well culture plates. On day 2, the medium was aspirated and the cells were washed twice with uptake buffer (UB). The cells were then incubated for 20 min at 22° C. with either (i) no potential competitor, (ii) 10 mM non-radioactive glycine, (iii) a concentration of a potential inhibitor. A range of concentrations of the potential inhibitor was used to generate data for calculating the concentration of inhibitor resulting in 50% of the effect (e.g. IC50, the concentration of the competitor inhibiting glycine uptake of 50%). A solution was then immediately added containing [^3H]-glycine 60 nM (11-16 Ci/mmol) and 25 μM non-radioactive glycine. The plates were incubated with gentle shaking and the reaction was stopped by aspiration of the mixture and washing (three times) with ice-cold UB. The cells were lysed with scintillation liquid, shaken 3 hours and the radioactivity in the cells was counted using a scintillation counter.

Row | pIC50 | Compound
1 | 7.07 | COc1cc(C(F)(F)F)cc(Br)c1C(=O)NC1(c2ccccc2)CCCN(C)C1 (racemic) [Example 7, rac-2-Bromo-6-methoxy-N-(1-methyl-3-phenyl-piperidin-3-yl)-4-trifluoromethyl-benzamide]
2 | 7.52 | CN1CC(C)(C)CC(NC(=O)c2ccc(C(F)(F)F)cc2C2CC2)(c2ccccc2)C1 (racemic) [Example 83, rac-2-Cyclopropyl-4-trifluoromethyl-N-(1,5,5-trimethyl-3-phenyl-piperidin-3-yl)-benzamide]
3 | 7.60 | C[C@@H]1CN(C)C[C@](NC(=O)c2ccc(C(F)(F)F)cc2C2CC2)(c2ccccc2)C1 (racemic) [Example 82, 2-Cyclopropyl-N-((3RS,5SR)-1,5-dimethyl-3-phenyl-piperidin-3-yl)-4-trifluoromethyl-benzamide hydrochloride]
4 | 6.61 | CN1CCCC(NC(=O)c2ccc(C(F)(F)F)cc2C2CCC2)(c2ccccc2)C1 (racemic) [Example 66, rac-2-Cyclobutyl-N-(1-methyl-3-phenyl-piperidin-3-yl)-4-trifluoromethyl-benzamide hydrochloride]
5 | 6.75 | CCc1cc(C(F)(F)F)ccc1C(=O)N[C@@]1(c2ccccc2)C[C@H](OC)CN(C)C1 (racemic) [Example 125, 2-Ethyl-N-((3R,5S) or (3S,5R)-5-methoxy-1-methyl-3-phenyl-piperidin-3-yl)-4-trifluoromethyl-benzamide]
6 | 7.59 | CCc1cc(C(F)(F)F)ccc1C(=O)NC1(c2ccccc2)CCCN(C)C1 (single isomer, unassigned) [Example 115, 2-Ethyl-N-((R or S)-1-methyl-3-phenyl-piperidin-3-yl)-4-trifluoromethyl-benzamide hydrochloride]
7 | 7.90 | CCc1cc(C(F)(F)F)ccc1C(=O)N[C@@]1(c2ccccc2)C[C@H](C)CN(C)C1 (racemic) [Example 124, N-((3R,5S) or (3S,5R)-1,5-Dimethyl-3-phenyl-piperidin-3-yl)-2-ethyl-4-trifluoromethyl-benzamide]
8 | 7.17 | CSc1cc(C(F)(F)F)ccc1C(=O)NC1(c2ccccc2)CCCN(C)C1 (racemic) [Example 19, rac-N-(1-Methyl-3-phenyl-piperidin-3-yl)-2-methylsulfanyl-4-trifluoromethyl-benzamide]
9 | 7.61 | COc1cc(C(F)(F)F)cc(SC)c1C(=O)NC1(c2ccccc2)CCCN(C)C1 (racemic) [Example 18, rac-2-Methoxy-N-(1-methyl-3-phenyl-piperidin-3-yl)-6-methylsulfanyl-4-trifluoromethyl-benzamide]
10 | 7.11 | CCc1c(C(=O)NC2(c3ccccc3)CCCN(C)C2)ccc(C(F)(F)F)c1C (racemic) [Example 103, rac-2-Ethyl-3-methyl-N-(1-methyl-3-phenyl-piperidin-3-yl)-4-trifluoromethyl-benzamide formic acid]
11 | 6.75 | COc1cc(C(F)(F)F)cc(OC)c1C(=O)NC1(c2ccccc2)CCCN(C)C1 (racemic) [Example 80, rac-2,6-Dimethoxy-N-(1-methyl-3-phenyl-piperidin-3-yl)-4-trifluoromethyl-benzamide]

Second part, the molecule before the results:

Row | Compound | pIC50
12 | COc1cc(C(F)(F)F)cc(C(F)(F)F)c1C(=O)NC1(c2ccccc2)CCCN(C)C1 (racemic) [Example 16, rac-2-Methoxy-N-(1-methyl-3-phenyl-piperidin-3-yl)-4,6-bis-trifluoromethyl-benzamide] | 6.86
13 | COc1cc(C(F)(F)F)cc(SC)c1C(=O)NC1(c2ccccc2)CC(O)CN(C)C1 (racemic) [Example 51, rac-N-(5-Hydroxy-1-methyl-3-phenyl-piperidin-3-yl)-2-methoxy-6-methylsulfanyl-4-trifluoromethyl-benzamide] | 7.24
14 | COc1cc(C(F)(F)F)cc(SC)c1C(=O)NC1(c2cccc(C(F)(F)F)c2)CCCN(C)C1 (racemic) [Example 89, rac-2-Methoxy-6-methylsulfanyl-N-[1-methyl-3-(3-trifluoromethyl-phenyl)-piperidin-3-yl]-4-trifluoromethyl-benzamide] | 6.97
15 | COc1cc(C(F)(F)F)cc(SC)c1C(=O)NC1(c2ccccc2)CCC2(CC2)N(C)C1 (racemic) [Example 105, rac-2-Methoxy-N-(4-methyl-6-phenyl-4-aza-spiro[2.5]oct-6-yl)-6-methylsulfanyl-4-trifluoromethyl-benzamide] | 7.53
16 | COc1cc(C(F)(F)F)cc(SC)c1C(=O)NC1(c2cccc(F)c2)CCCN(C)C1 (racemic) [Example 93, rac-N-[3-(3-Fluoro-phenyl)-1-methyl-piperidin-3-yl]-2-methoxy-6-methylsulfanyl-4-trifluoromethyl-benzamide formic acid] | 7.32
17 | Cl.[2H]C([2H])([2H])N1CCC[C@@](NC(=O)c2c(OC)cc(C(F)(F)F)cc2SC)(c2ccccc2)C1 (single isomer, unassigned) [Example 63, [2H-methyl]-2-Methoxy-N—(R) or (S)-1-methyl-3-phenyl-piperidin-3-yl)-6-methylsulfanyl-4-trifluoromethyl-benzamide hydrochloride] | 8.00
18 | COc1cc(C(F)(F)F)cc(SC)c1C(=O)N[C@]1(c2ccccc2)C[C@@H](C)CN(C)C1 (racemic) [Example 121, N-((3S,5R) or (3R,5S)-1,5-Dimethyl-3-phenyl-piperidin-3-yl)-2-methoxy-6-methylsulfanyl-4-trifluoromethyl-benzamide] | 7.78
19 | COc1cc(C(F)(F)F)cc(SC)c1C(=O)NC1(c2ccc(F)cn2)CCCN(C)C1 (racemic) [Example 47, rac-N-(5-Fluoro-1′-methyl-1′,4′,5′,6′-tetrahydro-2′H-[2,3′]bipyridinyl-3′-yl)-2-methoxy-6-methylsulfanyl-4-trifluoromethyl-benzamide] | 6.74
20 | COc1cc(C(F)(F)F)cc(SC)c1C(=O)NC1(c2ccccc2)CC(F)CN(C)C1 (racemic) [Example 48, rac-N-(5-Fluoro-1-methyl-3-phenyl-piperidin-3-yl)-2-methoxy-6-methylsulfanyl-4-trifluoromethyl-benzamide] | 6.70
21 | COc1cc(C(F)(F)F)cc(SC)c1C(=O)NC1(c2ccc(F)c(Cl)c2)CCCN(C)C1 (racemic) [Example 94, rac-N-[3-(3-Chloro-4-fluoro-phenyl)-1-methyl-piperidin-3-yl]-2-methoxy-6-methylsulfanyl-4-trifluoromethyl-benzamide] | 7.22
22 | COc1cc(C(F)(F)F)cc(SC)c1C(=O)NC1(c2ccccc2)CCCN(C)C1C (racemic) [Example 11, rac-N-(1,2-Dimethyl-3-phenyl-piperidin-3-yl)-2-methoxy-6-methylsulfanyl-4-trifluoromethyl-benzamide] | 7.69
23 | COCO[C@@H]1CN(C)C[C@](NC(=O)c2c(OC)cc(C(F)(F)F)cc2SC)(c2ccccc2)C1 (racemic) [Example 86, 2-Methoxy-N-((3RS,5SR)-5-methoxymethoxy-1-methyl-3-phenyl-piperidin-3-yl)-6-methylsulfanyl-4-trifluoromethyl-benzamide] | 7.15
24 | COc1cc(C(F)(F)F)cc(SC)c1C(=O)N[C@@]1(c2ccccc2)C[C@H](OC)CN(C)C1 (stereo in doubt) [Example 108, 2-Methoxy-N-((3R,5S) or (3S,5R)-5-methoxy-1-methyl-3-phenyl-piperidin-3-yl)-6-methylsulfanyl-4-trifluoromethyl-benzamide] | 7.39
25 | COc1cc(C(F)(F)F)cc(SC)c1C(=O)NC1(c2cccc(Cl)c2)CCCN(C)C1 (racemic) [Example 45, rac-N-[3-(3-Chloro-phenyl)-1-methyl-piperidin-3-yl]-2-methoxy-6-methylsulfanyl-4-trifluoromethyl-benzamide hydrochloride] | 7.61
26 | COc1cc(C(F)(F)F)cc(SC)c1C(=O)NC1(c2ccccc2)CCC(C)(C)N(C)C1 (racemic) [Example 84, rac-2-Methoxy-6-methylsulfanyl-4-trifluoromethyl-N-(1,6,6-trimethyl-3-phenyl-piperidin-3-yl)-benzamide hydrochloride] | 7.76
